Literature values, collected in patent US20090234270A1, “Therapy and device for treatment of nail infections” (Ondine International, Ltd., priority 2008, published 2009).

Assays:
[1] = in vivo, po

Structure (SMILES) | side effects [1] | further results
OC(Cn1cncn1)(Cn1cncn1)c1ccc(F)cc1F [Fluconazole] | severe side effects | 
COC1=CC(=O)C[C@@H](C)[C@]12Oc1c(Cl)c(OC)cc(OC)c1C2=O [Griseofulvin] | undesired side effects | efficacy in onychomycosis (onychomycosis; oral medicine): largely ineffectual
CN(C/C=C/C#CC(C)(C)C)Cc1cccc2ccccc12 [Lamisil, terbinafine] |  | nail clearing, share of patients (onychomycosis; oral, once a day for 90 days, clearing for one year): 70-80%
CC12CCC(CC1=O)C2(C)C (stereo not drawn) [camphor] |  | solubility in water: poorly soluble in water
CCC(C)n1ncn(-c2ccc(N3CCN(c4ccc(OCC5COC(Cn6cncn6)(c6ccc(Cl)cc6Cl)O5)cc4)CC3)cc2)c1=O (stereo not drawn) [itraconazole] | somewhat severe | 
